Laboratory results: US7858578B2, “Methods of inducing neuronal growth by a Fucose-α(1-2) galactose (fuc-α(1-2) gal) moiety and a lectin” (California Institute of Technology, priority 2004, dated 2010)

Tests used:
hippocampal neurons [1] = experiment: Neurite outgrowth of hippocampal neurons treated with carbohydrate-PAA conjugates; assay type: cell-based, rat; settings: FIG. 4B, concentration and valency series
Experimental: Hippocampal neurons were cultured using a procedure modified from Goslin and Banker, in Culturing Nerve Cells, Banker, G., Goslin, K., Eds., pp. 251-281, MIT Press: Cambridge, Mass. 1991. Briefly, the hippocampi of embryonic day 18 (E18) rats were dissected and transferred to 4.5 mL of ice-cold Calcium and Magnesium Free-Hank's Balanced Salt Solution (CMF-HBSS). Trypsin (2.5%, no EDTA) was added to 5 mL, and the tissue was incubated for 15 min at 37° C. The trypsin solution was removed and the tissue sample washed three times with 5 mL of CMF-HBSS. Cells were then dissociated from the tissue in 1 mL of CMF-HBSS by passing through a P1000 pipet tip twenty times. The cells were counted, diluted into Minimal Eagle's Medium (MEM) plus 10% fetal bovine serum, and seeded on poly-DL-ornithine-coated glass coverslips (Carolina Biological) at a density of 75 cells/mm2 (100 μL/coverslip) for 30 min. […]
The association of Fucα(1-2)Gal with potential lectins was studied to determine if it would stimulate neuronal growth. […] The cultures were incubated in 5% CO2 at 37° C. and analyzed. […]
For each experiment, 50 randomly selected cells were analyzed per coverslip using similar quantitative analysis techniques reported by Schmid et al., J. Neurosci. […] Briefly, only neurites longer than ˜10 μm and not in contact with other cells were measured using NIH Image 1.62 software. […]

hippocampal neurons [2] = experiment: Binding of biotinylated probe to cultured hippocampal neurons (streptavidin-AlexaFluor 488 imaging); assay type: cell-based, rat; settings: 3 mM, 10 μM PAO; for labeling of neurons after de-lipidation: neurons de-lipidated with MeOH/CHCl3; for binding to hippocampal neurons: 1 h, E18 neurons 23 days in vitro
Experimental: Hippocampal neurons were cultured using a procedure modified from Goslin and Banker, in Culturing Nerve Cells, Banker, G., Goslin, K., Eds., pp. 251-281, MIT Press: Cambridge, Mass. 1991. Briefly, the hippocampi of embryonic day 18 (E18) rats were dissected and transferred to 4.5 mL of ice-cold Calcium and Magnesium Free-Hank's Balanced Salt Solution (CMF-HBSS). Trypsin (2.5%, no EDTA) was added to 5 mL, and the tissue was incubated for 15 min at 37° C. The trypsin solution was removed and the tissue sample washed three times with 5 mL of CMF-HBSS. Cells were then dissociated from the tissue in 1 mL of CMF-HBSS by passing through a P1000 pipet tip twenty times. The cells were counted, diluted into Minimal Eagle's Medium (MEM) plus 10% fetal bovine serum, and seeded on poly-DL-ornithine-coated glass coverslips (Carolina Biological) at a density of 75 cells/mm2 (100 μL/coverslip) for 30 min. After this time, 500 μL of supplemented Neurobasal medium (47.5 mL Neurobasal medium without Lglutamine; 0.5 mL L-glutamine (200 mM); 0.5 mL penicillin/streptomycin (10,000 U/mL); 0.5 mL antibiotic-antimycotic (100× stock), 1.0 mL B-27 serum-free supplement (50× stock); 50 μL of 0.5 M kynurenic acid in 1 N NaOH) was added to each coverslip. The use of kynurenic acid to block glutamate receptor ion channels and enhance neuronal health and survival is standard protocol for neuronal cultures. Id. The cultures were maintained in 5% CO2 at 37° C. in supplemental Neurobasal medium.
After 23 days in culture, the medium was replaced, and neurons were treated with the endocytosis inhibitor phenylarsine oxide (PAO; 4 μL in DMSO, final concentration 10 μM) (Nouel, D., et al., J. Neurosci. 17:1795-1803 (1997)) and either compound III (24 μL in PBS, final concentration 3 mM), or biotin (24 μL in PBS, final concentration 3 mM), in supplemented Neurobasal medium (400 μL final volume) for 1 h at 37° C., 5% CO2. After 1 h, neurons were rinsed 2 times with PBS, fixed in 4% paraformaldehyde for 20 min at rt, washed 2 times with PBS, permeabilized in 0.3% Triton X-100 for 5 min at rt, and washed 2 times with PBS. Non-specific binding was blocked with 3% BSA for 1 h at rt and then rinsed one time with PBS. Compound III was detected with streptavidin conjugated to AlexaFluor 488 (1:200, Molecular Probes). Dye-conjugated streptavidin was added in 3% BSA for 1 h at 37° C. and the excess reagent washed off 5 times with PBS. Coverslips were then mounted onto slides with Vectashield, sealed, and imaged using confocal laser microscopy. Results can be seen in FIG. 2.
De-lipidation was performed on some samples following the protocol of Yavin, E. et al., J. Neurosci. Res. 9:229-237 (1983). Briefly, after 23 days in culture, cells were rinsed once with PBS then exposed to MeOH/CHCl3 (½ by vol.) for 15 min at −80° C. This procedure fixes the cells to the coverslip and extracts cellular lipids. After removing the MeOH/CHCl3 mixture, coverslips were dried at rt then incubated with 3% BSA for 1 hr at rt. After one rinse with PBS, neurons were treated with PAO and the procedure described above was followed.

## C[C@@H]1O[C@@H](O[C@H]2[C@H](OCCOCCNC(=O)CCCC[C@@H]3SC[C@@H]4NC(=O)N[C@@H]43)O[C@H](CO)[C@H](O)[C@@H]2O)[C@@H](O)[C@H](O)[C@@H]1O [Compound III]
Hippocampal neurons [1]
  neurite outgrowth activity: only modest activity
Hippocampal neurons [2]
  labeling of neurons after de-lipidation: labeling was not diminished
  binding to hippocampal neurons: binds
Hippocampal neurons [2]; listed as probe III
  labeling of neurons after de-lipidation: does not alter the labeling
Hippocampal neurons [2]; listed as compound III
  binding to hippocampal neurons: binding of compound III to the cell body and neurite processes
